Values quoted from earlier work, collected in US11083734B2 (ACUCORT AB, priority 2014, dated 2021).

How the values were obtained:
[1] = humans, oral administration, literature and product information

Row | solubility in water | t(max) [1] [h] | solubility in anhydrous ethanol | SMILES
1 | freely soluble |  |  | C[C@@H]1C[C@H]2[C@@H]3CCC4=CC(=O)C=C[C@]4(C)[C@@]3(F)[C@@H](O)C[C@]2(C)[C@@]1(O)C(=O)COP(=O)(O)O [dexamethasone sodium phosphate]
2 | practically insoluble | ~1.5 | sparingly soluble | C[C@@H]1C[C@H]2[C@@H]3CCC4=CC(=O)C=C[C@]4(C)[C@@]3(F)[C@@H](O)C[C@]2(C)[C@@]1(O)C(=O)CO [dexamethasone]
